According to ChEMBL document CHEMBL3351846, “Synthesis and SAR studies of bis-chromenone derivatives for anti-proliferative activity against human cancer cells” (Bioorg Med Chem Lett, 2014):
Structures can show the parent of a compound that is named as a salt.

Key:
Assay type in all cases: functional, cell-based
[1] = system: ACHN; assay: Anti-proliferative activity against human ACHN cells by XTT assay
[2] = Anti-proliferative activity against human HCT15 cells by XTT assay; details: HCT-15
[3] = system: MDA-MB-231; assay: Anti-proliferative activity against human MDA-MB-231 cells by XTT assay
[4] = system: NCI-H23; assay: Anti-proliferative activity against human NCI-H23 cells by XTT assay
[5] = Anti-proliferative activity against human NUGC3 cells by XTT assay; details: NUGC-3
[6] = Anti-proliferative activity against human PC3 cells by XTT assay; details: PC-3

IC50 [1] [µM]	IC50 [3] [µM]	IC50 [4] [µM]	Compound	IC50 [2] [µM]	IC50 [5] [µM]	IC50 [6] [µM]
1.35	1.2	1.32	COc1ccc2c(=O)c(Cc3coc4cccc(OCC5CCCCC5)c4c3=O)coc2c1	1.45	1.44	1.12
> 10	> 10	> 10	O=c1c(/C=C/c2coc3ccccc3c2=O)coc2ccccc12	> 10	> 10	> 10
> 10	> 10	> 10	O=c1c(CCc2coc3ccccc3c2=O)coc2ccccc12	> 10	> 10	> 10
0.34	> 10	1.93	COc1cccc2occ(Cc3coc4ccccc4c3=O)c(=O)c12	3.43	3.19	3.49
3.96	> 10	> 10	CC(C)CCOc1cccc2occ(Cc3coc4ccccc4c3=O)c(=O)c12	> 10	> 10	> 10
4.23	4.11	4.13	O=c1c(Cc2coc3cccc(OCC4CCCCC4)c3c2=O)coc2ccccc12	4.24	3.53	4.51
3.99	> 10	> 10	O=c1c(Cc2coc3cccc(OCc4ccccc4)c3c2=O)coc2ccccc12	> 10	7.22	4.83
1.46	> 10	> 10	CC(C)COc1cccc2occ(Cc3coc4ccccc4c3=O)c(=O)c12	> 10	> 10	1.72
2.1	3.22	2.15	O=c1c(Cc2coc3cccc(OCC4CCCCC4)c3c2=O)coc2cc(O)ccc12	2.11	3.22	4.25
2.25	3.32	3.22	Cc1ccc2c(=O)c(Cc3coc4cccc(OCC5CCCCC5)c4c3=O)coc2c1	2.22	2.15	2.44
0.74	> 10	7.55	O=c1c(Cc2coc3cccc(O)c3c2=O)coc2ccccc12	> 10	3.27	5.95
–	0.6	0.49	COc1cccc2c1C(=O)c1c(O)c3c(c(O)c1C2=O)C[C@@](O)(C(=O)CO)C[C@@H]3O[C@H]1C[C@H](N)[C@H](O)[C@H](C)O1 [DOXORUBICIN HYDROCHLORIDE]	0.43	0.38	–
0.51	> 10	1.4	O=c1c(Cc2coc3ccccc3c2=O)coc2ccccc12	> 10	7.77	7.4
8.2	9.11	9.49	O=C1c2c(OCC3CCCCC3)cccc2OCC1Cc1coc2ccccc2c1=O (stereo not drawn)	8.36	8.42	9.38
> 10	> 10	> 10	O=c1c(Cc2coc3cccc(OCC4CCCCC4)c3c2=O)coc2cc(Cl)ccc12	> 10	> 10	> 10
